Source: patent publication US7101878B1 (Agouron Pharmaceuticals, Inc., priority 1998, dated 2006)
Read-outs that look alike come from different tables or passages of the source.

Legend:
[1] = target: T1, mouse GnRH receptor (Mus musculus, UniProt Q01776); assay: Radioligand binding, 125I-GnRH-A, 293 cells expressing mouse GnRH receptors; conditions: for inhibition at 10 µM: read-out: % Inhib. @ 10 uM mGnRH; for remaining activity at 10 µM: 1 h, read-out: S%R 10 uM mGnRHR
T1 construct: expressed in transfected cells; host or cells: 293 cells
T1 sequence (Q01776 1-327): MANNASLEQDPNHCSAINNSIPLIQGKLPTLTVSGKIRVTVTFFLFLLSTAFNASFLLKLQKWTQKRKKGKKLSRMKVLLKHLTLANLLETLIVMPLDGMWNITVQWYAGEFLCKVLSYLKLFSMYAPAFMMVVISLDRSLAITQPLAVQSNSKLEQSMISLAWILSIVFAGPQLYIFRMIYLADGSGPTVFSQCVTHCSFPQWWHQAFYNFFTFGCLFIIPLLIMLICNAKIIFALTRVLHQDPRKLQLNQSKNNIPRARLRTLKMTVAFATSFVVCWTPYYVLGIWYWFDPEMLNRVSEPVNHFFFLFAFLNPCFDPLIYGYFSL
Protocol: All compounds were diluted in 1% DMSO (final assay concentration) in binding assay buffer. […] Reactions were terminated by rapid filtration onto 96-well Packard GF/C filters soaked in 0.1% polyethyleneimine. Filters were washed three times with PBS buffer, dried and counted on a Packard Topcount by liquid scintillation counting.
Assay conditions were identical for assessing compound activities at other species. […] IC50 values for control peptides and test compounds were calculated utilizing GraphPad Prism™ software.
The reaction mixture was vortexed and incubated for 1 min at room temperature. After one min, the mixture was vortexed and allowed to incubate for an additional minute. 2 ml of 0.5 M acetic acid/1% BSA was added to the reaction tube and the mixture was added to a C18 Sep-Pak cartridge. The cartridge was washed with subsequent washes of 5 ml H2O and 5 ml 0.5M acetic acid and then eluted with 5×1 ml of 60% CH3CN/40% 0.5M acetic acid. The eluate was diluted with 3× volume of HPLC buffer A (0.1% TFA in H2O) and loaded onto a C18 column. […] The radioactive fractions (750 ed/fraction) are collected into clean polypropylene tubes containing 100 μl of 10% BSA. Fractions were assessed for biological activity by radioligand binding.

[2] = target: T2, human GnRH receptor (Homo sapiens, UniProt P30968); assay: Radioligand binding, 125I-GnRH-A displacement, membranes of HEK 293 cells with human GnRH receptor; conditions: for IC50: read-out: hGnRH IC50
T2 construct: expressed in transfected cells; host or cells: HEK 293 (hGnRH-R/293, from Dr. Stuart Sealfon)
T2 sequence (P30968 1-328): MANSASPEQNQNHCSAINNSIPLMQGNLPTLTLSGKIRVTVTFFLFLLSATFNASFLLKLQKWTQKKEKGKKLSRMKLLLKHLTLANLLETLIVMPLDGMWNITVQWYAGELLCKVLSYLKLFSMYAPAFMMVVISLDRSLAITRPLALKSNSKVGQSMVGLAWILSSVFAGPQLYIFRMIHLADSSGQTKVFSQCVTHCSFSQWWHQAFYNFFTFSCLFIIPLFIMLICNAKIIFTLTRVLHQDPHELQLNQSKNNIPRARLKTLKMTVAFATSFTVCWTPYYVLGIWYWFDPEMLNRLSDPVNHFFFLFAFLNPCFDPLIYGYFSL
How it was run: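 After filtration and PBS washes, bound radioactivity was counted by scintillation and IC50 derived. Identical conditions applied for non-human receptors.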

[3] = substrate remaining, 10 uM compound, closer to zero = closer to 100% inhibition
[4] = 1 uM, read-out: % Inhib. @ 1 uM hGnRH
[5] = 1 h, repeat of % Inhib. at 1 uM, read-out: Repeats @ 1 uM hGnRH

Structure (SMILES)	inhibition at 10 µM [1]	remaining activity at 10 µM [1, 3]	other results
CCCCNC(=O)c1ccc(Cc2cc3c(cc2C)C(C)(C)CCC3(C)C)o1	90%	–	–
Cc1cc2c(cc1Cc1ccc(C(=O)NCc3ccccc3-c3ccccc3)o1)C(C)(C)CCC2(C)C [drawing 1372]	74%	–	–
Cc1cc2c(cc1Cc1ccc(C(=O)N(C)C3CCN(C)CC3)o1)C(C)(C)CCC2(C)C [drawing 1420]	89%	–	–
Cc1cc2c(cc1Cc1ccc(C(=O)NC(CO)(CO)CO)o1)C(C)(C)CCC2(C)C	13%	–	–
Cc1cc2c(cc1Cc1ccc(C(=O)N(CCCCO)Cc3ccccc3)o1)C(C)(C)CCC2(C)C	99%	–	–
Cc1cc2c(cc1Cc1ccc(C(=O)N3CCC(c4cccc(C(F)(F)F)c4)C(O)C3)o1)C(C)(C)CCC2(C)C (centres unmarked)	35%	–	–
Cc1cc2c(cc1Cc1ccc(C(=O)N(CCCN3CCN(C)CC3)Cc3cc(C)n(-c4cccc(C(F)(F)F)c4)c3C)o1)C(C)(C)CCC2(C)C [Compound 567]	–	-1%	–
Cc1cc2c(cc1Cc1ccc(C(=O)NC(C(C)C)C(C)C)o1)C(C)(C)CCC2(C)C	58%	–	–
Cc1cc2c(cc1Cc1ccc(C(=O)NCCc3ccc(Cl)cc3)o1)C(C)(C)CCC2(C)C [Compound 642]	–	19%	–
COc1ccccc1CN(CCC(c1ccccc1)c1ccccc1)C(=O)c1ccc(Cc2cc3c(cc2C)C(C)(C)CCC3(C)C)o1	21%	–	–
Cc1cc2c(cc1Cc1ccc(C(=O)NC(CO)CC3CCCCC3)o1)C(C)(C)CCC2(C)C (centres unmarked) [Compound 558]	–	24%	–
Cc1cc2c(cc1Cc1ccc(C(=O)N3CCC(NC(=O)C(F)(F)F)C3)o1)C(C)(C)CCC2(C)C (centres unmarked) [drawing 1578]	60%	–	–
Cc1cc2c(cc1Cc1ccc(C(=O)NCC(C)O)o1)C(C)(C)CCC2(C)C (centres unmarked) [drawing 1443]	90%	–	–
C=CCN(C(=O)c1ccc(Cc2cc3c(cc2C)C(C)(C)CCC3(C)C)o1)C1CCCC1	95%	–	–
Cc1cc2c(cc1Cc1ccc(C(=O)NCc3ccccn3)o1)C(C)(C)CCC2(C)C [Compound 501]	–	-3%	–
Cc1cc2c(cc1Cc1ccc(C(=O)NCC3CCN(c4ccnc(Cl)n4)CC3)o1)C(C)(C)CCC2(C)C [Compound 530]	–	-4%	–
CC(=O)N1CCCN(C(=O)c2ccc(Cc3cc4c(cc3C)C(C)(C)CCC4(C)C)o2)CC1 [Compound 599]	–	28%	–
Cc1cc2c(cc1Cc1ccc(C(=O)N3CCN(CCCN(C)C)CC3)o1)C(C)(C)CCC2(C)C	96%	–	–
Cc1cc2c(cc1Cc1ccc(C(=O)N3CCN(CCN(C)C)CC3)o1)C(C)(C)CCC2(C)C	98%	–	–

Structure (SMILES)	inhibition at 10 µM [1]	remaining activity at 10 µM [1, 3]	other results
CCCN(CCc1ccccn1)C(=O)c1ccc(Cc2cc3c(cc2C)C(C)(C)CCC3(C)C)o1 [Compound 697]	–	1%	–
CCCCN(CCCC)CCCNC(=O)c1ccc(Cc2cc3c(cc2C)C(C)(C)CCC3(C)C)o1 [Compound 692]	–	-2%	–
COc1cc2c(cc1OC)C(c1cccc(Br)c1)N(C(=O)c1ccc(Cc3cc4c(cc3C)C(C)(C)CCC4(C)C)o1)CC2 (centres unmarked)	-23%	–	–
Cc1cc2c(cc1Cc1ccc(C(=O)N(CCN3CCCC3)Cc3cccc(Oc4cccc(C(F)(F)F)c4)c3)o1)C(C)(C)CCC2(C)C	99%	–	–
Cc1cc2c(cc1Cc1ccc(C(=O)NC[C@@H]3CCCO3)o1)C(C)(C)CCC2(C)C [Compound 582]	–	-2%	–
COc1cccc(N2CCN(C(=O)c3ccc(Cc4cc5c(cc4C)C(C)(C)CCC5(C)C)o3)CC2)c1 [Compound 553]	–	34%	–
Cc1cc2c(cc1Cc1ccc(C(=O)NC3(CO)CCCC3)o1)C(C)(C)CCC2(C)C [Compound 550]	–	3%	–
Cc1cc2c(cc1Cc1ccc(C(=O)N3CCCC(C)(C)C3)o1)C(C)(C)CCC2(C)C [Compound 657]	–	3%	–
Cc1cc2c(cc1Cc1ccc(C(=O)NCCNCCNc3ccccc3)o1)C(C)(C)CCC2(C)C [Compound 458]	–	29%	–
Cc1cc2c(cc1Cc1ccc(C(=O)NCCSCCO)o1)C(C)(C)CCC2(C)C [Compound 561]	–	0%	–
Cc1cc2c(cc1Cc1ccc(C(=O)N3CC=C(n4c(=O)[nH]c5ccccc54)CC3)o1)C(C)(C)CCC2(C)C	85%	–	–
Cc1cc2c(cc1Cc1ccc(C(=O)N(CCC(c3ccccc3)c3ccccc3)Cc3ccccn3)o1)C(C)(C)CCC2(C)C [Compound 645]	–	51%	–
Cc1cc2c(cc1Cc1ccc(C(=O)NC(C)(C)CC(C)(C)C)o1)C(C)(C)CCC2(C)C [Compound 654]	–	34%	–
Cc1cc2c(cc1Cc1ccc(C(=O)NC(CO)CO)o1)C(C)(C)CCC2(C)C	22%	–	–
CCCCN(CC)CCNC(=O)c1ccc(Cc2cc3c(cc2C)C(C)(C)CCC3(C)C)o1	101%	–	–
Cc1cc2c(cc1Cc1ccc(C(=O)NCCCN3CCOCC3)o1)C(C)(C)CCC2(C)C [Compound 460]	–	-4%	–
CCN(C(=O)c1ccc(Cc2cc3c(cc2C)C(C)(C)CCC3(C)C)o1)C1CCCCC1 [drawing 1524]	100%	–	–
Cc1cc2c(cc1Cc1ccc(C(=O)N3CCc4c([nH]c5ccccc45)C3)o1)C(C)(C)CCC2(C)C	44%	–	–
Cc1cc2c(cc1Cc1ccc(C(=O)N3CCN(CCO)CC3)o1)C(C)(C)CCC2(C)C [drawing 1429]	69%	–	–

Structure (SMILES)	inhibition at 10 µM [1]	remaining activity at 10 µM [1, 3]	other results
Cc1cc2c(cc1Cc1ccc(C(=O)NCC(C)(C)CO)o1)C(C)(C)CCC2(C)C [Compound 601]	–	17%	–
Cc1cc2c(cc1Cc1ccc(C(=O)NCCc3ccc(F)cc3)o1)C(C)(C)CCC2(C)C [Compound 632]	–	21%	–
Cc1cc2c(cc1Cc1ccc(C(=O)N(Cc3ccco3)C3CC(=O)N(C)C3=O)o1)C(C)(C)CCC2(C)C (centres unmarked) [drawing 1504]	69%	–	–
Cc1cc2c(cc1Cc1ccc(C(=O)N(CCC#N)C3CCCC3)o1)C(C)(C)CCC2(C)C	88%	–	–
CCN1CC(N(CCC(C)c2ccccc2)C(=O)c2ccc(Cc3cc4c(cc3C)C(C)(C)CCC4(C)C)o2)CN1CC (centres unmarked) [drawing 1568]	95%	–	–
CCC(O)CNC(=O)c1ccc(Cc2cc3c(cc2C)C(C)(C)CCC3(C)C)o1 (centres unmarked) [Compound 679]	–	1%	–
CCC(COC)NC(=O)c1ccc(Cc2cc3c(cc2C)C(C)(C)CCC3(C)C)o1 (centres unmarked)	98%	–	–
Cc1cc2c(cc1Cc1ccc(C(=O)NCCc3ccc(F)cc3)o1)C(C)(C)CCC2(C)C [drawing 1574]	79%	–	–
Cc1cc2c(cc1Cc1ccc(C(=O)N3CCCCCCC3)o1)C(C)(C)CCC2(C)C [drawing 1433]	88%	–	–
Cc1cc2c(cc1Cc1ccc(C(=O)NCCc3c[nH]cn3)o1)C(C)(C)CCC2(C)C [Compound 527]	–	–	S%R 10 uM mGnRHR [1, 3]: 10%
Cc1cc2c(cc1Cc1ccc(C(=O)N3CCN(CCOCCO)CC3)o1)C(C)(C)CCC2(C)C [drawing 1252]	63%	–	–
Cc1cc2c(cc1Cc1ccc(C(=O)N3CCN(c4ccc(Cl)c(Cl)c4)CC3)o1)C(C)(C)CCC2(C)C	–	–	inhibition at 1 µM [2, 4]: -20%; inhibition at 1 µM [2, 5]: -7%
Cc1cc2c(cc1Cc1ccc(C(=O)NCCc3ccc(O)cc3)o1)C(C)(C)CCC2(C)C	–	–	inhibition at 1 µM [2, 4]: 19%; inhibition at 1 µM [2, 5]: 29%
Cc1cc2c(cc1Cc1ccc(C(=O)Nc3ccc4c(=O)[nH][nH]c(=O)c4c3)o1)C(C)(C)CCC2(C)C [Compound 377]	–	–	remaining activity at 10 µM ([2]; 1 h, substrate remaining, 10 uM compound, closer to zero = closer to 100% inhibition, read-out: S%R 10 uM hGnRHR): 39%
Cc1ncc(CNC(=O)c2ccc(Cc3cc4c(cc3C)C(C)(C)CCC4(C)C)o2)c(N)n1 [Compound 163]	–	–	IC50 [2]: 1.96 µM
COc1cc(OC)c(NC(=O)c2cc(Cc3cc4c(cc3C)C(C)(C)CCC4(C)C)on2)c(OC)c1 [Compound 218]	–	–	IC50 [2]: 6.46 µM
COc1cccc(OC)c1NC(=O)c1ccc(Cc2cc(C(C)C)c(O)cc2C)o1 [Compound 303]	–	–	IC50 [2]: 0.32 µM
Cc1cc2c(cc1Cc1ccc(C(=O)N(C)CC(O)c3ccccc3)o1)C(C)(C)CCC2(C)C (centres unmarked)	–	–	inhibition at 1 µM [2, 4]: 20%; inhibition at 1 µM [2, 5]: 22%
